For assay [1], the target named is T1, Glucocorticoid Receptor (GR) (Homo sapiens, UniProt P04150).
T1 construct: purchased Invitrogen P2893
T1 sequence (P04150 1-777): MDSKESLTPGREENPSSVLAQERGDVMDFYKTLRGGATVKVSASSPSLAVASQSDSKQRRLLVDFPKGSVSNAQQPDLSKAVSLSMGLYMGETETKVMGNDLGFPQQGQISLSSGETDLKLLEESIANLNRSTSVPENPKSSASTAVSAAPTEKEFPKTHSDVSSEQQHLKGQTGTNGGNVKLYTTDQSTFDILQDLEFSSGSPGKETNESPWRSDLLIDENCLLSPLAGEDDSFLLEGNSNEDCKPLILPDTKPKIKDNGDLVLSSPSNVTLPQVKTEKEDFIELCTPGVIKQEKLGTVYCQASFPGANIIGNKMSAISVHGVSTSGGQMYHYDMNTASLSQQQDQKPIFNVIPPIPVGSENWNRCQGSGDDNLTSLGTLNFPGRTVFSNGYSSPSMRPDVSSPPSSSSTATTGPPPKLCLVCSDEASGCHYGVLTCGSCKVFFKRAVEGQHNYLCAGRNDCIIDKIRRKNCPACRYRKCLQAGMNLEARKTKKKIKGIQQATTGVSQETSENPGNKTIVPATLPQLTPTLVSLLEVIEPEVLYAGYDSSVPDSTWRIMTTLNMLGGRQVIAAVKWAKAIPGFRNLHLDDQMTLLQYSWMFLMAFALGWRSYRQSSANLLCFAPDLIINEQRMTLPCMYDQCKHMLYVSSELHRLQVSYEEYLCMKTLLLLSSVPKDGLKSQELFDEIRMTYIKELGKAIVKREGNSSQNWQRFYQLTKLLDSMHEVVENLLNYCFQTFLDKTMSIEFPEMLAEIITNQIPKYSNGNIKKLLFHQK
The assay can be described thus: GR Fluorescence Polarization Assay (PolarScreen Glucocorticoid Receptor Competitor Assay, Red). The note with it: IC50 class ranges, read-out: GR binding. The method, then:
GR Fluorescence Polarization Assay
Fluorescence polarization assays were carried out using the PolarScreen™ Glucocorticoid Receptor Competitor Assay, Red from Invitrogen (P2893). The assay buffer was prepared according to the manufacturer's protocol and used to dilute the fluorescent glucocorticoid and GR. Compounds were prepared and serial diluted 1:4 in DMSO. Compound, fluorescent glucocorticoid and GR were added in a final volume of 20 μL and incubated overnight at 4° C. Fluorescent polarization was measured on the PerkinElmer Envision®.

Assay [2] deals with IL-6 in A549 cells stimulated with IL-1β. Description: A549 Cell Assay to Measure Inflammation Markers (inhibition of IL-1β-induced IL-6). The following applies: intrinsic activity, Emax class ranges; for Emax: Homo sapiens, A549, A549 Cell Assay to Measure Inflammation Markers; for A549 Emax: A549 Cell Assay to Measure Inflammation Markers. Type of assay: cell-based. As for the experimental part:
A549 Cell Assay to Measure Inflammation Markers
Further dilution (1:250) of compound was made into assay medium and 50 μL/well diluted drug or DMSO/media control was applied to cells. After a 1 h pre-incubation in a temperature, CO2, and humidity controlled incubator, set to 37° C., 50 μL/well of 4 ng/mL IL-1β diluted in assay media, was applied to cultures. Assay plates, with a final volume of 200 μL/well and final concentrations of 0.1% DMSO and 1 ng/mL IL-1β were returned to incubator for a […] incubation period. Next, plates were spun at 183 g (1000 rpm in Beckman/Coulter Allegra 6KR centrifuge) for 10 min. Cell-free supernatant (150 μL/well) was collected and IL-6 was measured by MSD kit, following protocol of manufacturer, and using MSD SECTOR Imager 6000 instrument. […] Results were represented as IC50 and Emax values.

Some results are limits rather than exact numbers.

The values below come from patent US9150592B2, “Heterocyclic nuclear hormone receptor modulators” (AbbVie Inc., priority 2012, dated 2015).

For the compound `Cc1cc(Cl)cnc1C1SC(C)(C)CNc2c1c(C1CC1)nn2C` (stereo not shown) [D.50], the IC50 in assay [1] was 0.1 to 1 µM. This compound showed an Emax in assay [2] of under 50%.
On the same counts, the results for `CCn1nc(-c2ccccn2)c2c1N[C@H](C)CS[C@H]2c1ccc(C#CC(C)(C)O)cc1C` (single isomer, unassigned) [M.31, 4-(4-(1-ethyl-7-methyl-3-(pyridin-2-yl)-4,6,7,8-tetrahydro-1H-pyrazolo[3,4-e][1,4]thiazepin-4-yl)-3-methylphenyl)-2-methylbut-3-yn-2-ol] are under 0.1 µM and over 70%.
As for `Cn1nc(-c2cccs2)c2c1NCCSC2c1ccc(Cl)cc1Cl` (stereo not shown) [D.101], the IC50 in assay [1] was under 0.1 µM. The compound also yielded a maximal response (Emax) in assay [2] of under 50%.
Consider `Cc1cc(Cl)ccc1C1SCCNc2c1c(-c1ccccn1)nn2CC(F)(F)F` (stereo not shown) [D.104], for which, in assay [1], the IC50 was under 0.1 µM. The compound further yielded an Emax in assay [2] of over 70%.
On the same counts, the results for `Cc1ncccc1NC(=O)c1ccc(C2SCCNc3c2c(-c2ccccn2)nn3C)c(Cl)c1` (single isomer, unassigned) are 1 to 10 µM and under 50%.
On the same counts, the results for `CCn1nc(-c2ccccn2)c2c1NCCSC2c1ccc(C(=O)Nc2cc(C)no2)cc1C` (stereo not shown) [R.1, 4-(1-ethyl-3-(pyridin-2-yl)-4,6,7,8-tetrahydro-1H-pyrazolo[3,4-e][1,4]thiazepin-4-yl)-3-methyl-N-(3-methylisoxazol-5-yl)benzamide] are under 0.1 µM and under 50%.
For `Cc1cc(Br)ccc1C1SC(C)(C)CNc2c1c(C)nn2C` (stereo not shown) [D.58, 4-(4-bromo-2-methyl-phenyl)-1,3,6,6-tetramethyl-7,8-dihydro-4H-pyrazolo[3,4-e][1,4]thiazepine] the same measures were under 0.1 µM and over 50%.
`Cc1nn(C)c2c1C(c1ccc(Cl)cc1)SC(CCO)CN2` (stereo not shown) [D.68, 2-(4-(4-chlorophenyl)-1,3-dimethyl-4,6,7,8-tetrahydro-1H-pyrazolo[3,4-e][1,4]thiazepin-6-yl)ethanol 2,2,2-trifluoracetate]: in assay [1], the IC50 is under 0.1 µM. Moreover, the Emax in assay [2] was under 50%.
On the same counts, the results for `CCn1nc(-c2ccccn2)c2c1N[C@@H](C)CS[C@H]2c1ccc(CCCO)cc1C` (single isomer, unassigned) [M.36, 3-(4-(1-ethyl-7-methyl-3-(pyridin-2-yl)-4,6,7,8-tetrahydro-1H-pyrazolo[3,4-e][1,4]thiazepin-4-yl)-3-methylphenyl)propan-1-ol] are under 0.1 µM and over 60%.
On the same counts, the results for `Cc1cc(C#N)ccc1[C@@H]1S[C@@H](C)CNc2c1c(C)nn2C` [G.2] are 0.1 to 1 µM and under 50%.
For `Cc1cc(C(=O)Nc2cccnc2)ccc1C1SC(C)(C)CNc2c1c(C)nn2C` (stereo not shown) [H.1, 3-methyl-N-(3-pyridyl)-4-(1,3,6,6-tetramethyl-7,8-dihydro-4H-pyrazolo[3,4-e][1,4]thiazepin-4-yl)benzamide], the IC50 in assay [1] is 1 to 10 µM. Further, the maximal response (Emax) in assay [2] is under 50%.
In the case of `Cc1cc(Cl)ccc1C1SCC(C)Nc2c1c(-c1ccccn1)nn2C` (single isomer, unassigned), the IC50 in assay [1] fell in the range of 1 to 10 µM. This compound showed a maximal effect (Emax) in assay [2] of under 50%.
Take `Cc1cc(C(N)=O)ccc1C1SC(C)(C)CNc2c1c(C)nn2C` (stereo not shown) [I.4]: in assay [1], the IC50 is 1 to 10 µM. Moreover, in assay [2], the maximal effect (Emax) was under 50%.
For `Cc1cc(Cl)ccc1C1SC(C)(C)CNc2c1c(C)nn2C` (stereo not shown) [D.57] the same measures were under 0.1 µM and over 50%.
For `Cc1cc(Cl)ccc1C1SC(CCO)C(C)Nc2c1c(C)nn2C` (single isomer, unassigned) the same measures were 0.1 to 1 µM and over 70%.
In the case of `Cc1cc(C(=O)Nc2cccnc2C)ccc1C1SCC(C)Nc2c1c(-c1ccccn1)nn2C` (stereo not shown) [H.6], the IC50 in assay [1] was under 0.1 µM. In addition, in assay [2], the Emax is over 70%.
On the same counts, the results for `CCn1nc(-c2ccccn2)c2c1NCCSC2c1ccc(C(=O)Nc2nnc(C)s2)cc1C` (stereo not shown) [S.4] are under 0.1 µM and under 50%.
On the same counts, the results for `Cc1ccc(C2SCCNc3c2c(-c2ccccn2)nn3C)c(Cl)c1` (stereo not shown) are under 0.1 µM and under 50%.
Regarding `Cc1ccc(C(=O)Nc2cccnc2C)cc1C1SCCNc2c1c(-c1ccccn1)nn2C` (stereo not shown) [F.5], in assay [1], the IC50 was over 10 µM. This compound also came in with an Emax in assay [2] of under 50%.
For `Cc1cc2c(cnn2-c2ccc(F)cc2)cc1C1SCC(=O)Nc2c1c(-c1ccccn1)nn2C` (racemic) the same measures were under 0.1 µM and over 70%.
For `CCn1nc(-c2ccccn2)c2c1NCCCC2c1ccc(Br)cc1C` (stereo not shown) [BB.1, 4-(4-bromo-2-methylphenyl)-1-ethyl-3-(pyridin-2-yl)-1,4,5,6,7,8-hexahydropyrazolo[3,4-b]azepine] the same measures were under 0.1 µM and over 70%.
For `CCn1nc(-c2ccccn2)c2c1N[C@@H](C)CS[C@H]2c1ccc(C#CCO)cc1C` (single isomer, unassigned) [M.28, 3-(4-(1-ethyl-7-methyl-3-(pyridin-2-yl)-4,6,7,8-tetrahydro-1H-pyrazolo[3,4-e][1,4]thiazepin-4-yl)-3-methylphenyl)prop-2-yn-1-ol] the same measures were under 0.1 µM and over 60%.
As to `Cc1cc(C(=O)Nc2cccnc2C)ccc1C1SCCNc2c1c(-c1ccccn1)nn2C` (stereo not shown), the IC50 in assay [1] was under 0.1 µM. This compound yielded an Emax in assay [2] of over 70%.
For `Cc1nn(C)c2c1C(c1ccc(Cl)cc1Cl)S(=O)(=O)C(C)(C)CN2` (stereo not shown) [L.4], the IC50 in assay [1] lay within 1 to 10 µM. Further, the Emax in assay [2] was under 50%.
Turning to `Cc1cc(Cl)ccc1C1SCC(C)Nc2c1c(-c1ccccn1)nn2C` (single isomer, unassigned) [(4S,7S)-4-(4-chloro-2-methylphenyl)-1,7-dimethyl-3-(pyridin-], the “A549 Emax” value in assay [2] is recorded as “D (a compound with Emax<50%)”.
Same read-out and setting: then `Cc1cc(Cl)ccc1C1SCCNc2c1c(-c1ccccn1)nn2C` (single isomer, unassigned) [(4S)-4-(4-chloro-2-methyl-phenyl)-1-methyl-3-(2-pyridyl)-4,6], with “B (a compound with Emax>60%)”.
`CCn1nc(-c2ccccn2)c2c1N[C@H](C)CS[C@@H]2c1ccc(C#CC(C)(C)O)cc1C` (single isomer, unassigned) [M.30, 4-(4-(1-ethyl-7-methyl-3-(pyridin-2-yl)-4,6,7,8-tetrahydro-1H-pyrazolo[3,4-e][1,4]thiazepin-4-yl)-3-methylphenyl)-2-methylbut-3-yn-2-ol]: the IC50 in assay [1] was in the range of 1 to 10 µM.
Same read-out and setting: then `CC(=O)N1CCN(c2ccc(-c3ccc(C4SCCNc5c4c(-c4ccccn4)nn5C)c(Cl)c3)cn2)CC1` (stereo not shown) [U.14], with 1 to 10 µM.
Same read-out and setting: then `Cc1cc(C#N)ccc1C1SC(C)CNc2c1c(C)nn2C` (stereo not shown) [G.11], with 1 to 10 µM; and `Cc1nn(C)c2c1C(c1ccc(Cl)cc1)SC(CCO)CN2` (stereo not shown) [D.100], with under 0.1 µM; and `Cn1nc(-c2ccccn2)c2c1NCCSC2c1ccc(-c2cncc(C(=O)N3CCOCC3)c2)cc1Cl` (stereo not shown) [U.12], with 0.1 to 1 µM.
Still for that read-out and setting: then `CNC(=O)c1ccc(C2SCCNc3c2c(-c2ccccn2)nn3C)c(Cl)c1` (stereo not shown) [I.2], with 0.1 to 1 µM; and `Cn1nc(-c2ccccn2)c2c1NCCSC2c1ccc(-c2ccncc2C#N)cc1Cl` (stereo not shown) [U.9], with 0.1 to 1 µM; and `CNC(=O)c1ccc(-c2nn(C)c3c2C(c2ccc(Cl)cc2Cl)SCCN3)nc1` (stereo not shown) [I.3], with 1 to 10 µM.
